One series relates to aorta of rabbits. The series can be described thus: Effect of vitamin B6 and the equimolar dose of a derivative thereof on the calcium and lipid content of the aorta of rabbits after 10 weeks. As to conditions: control diet 2% cholesterol, pyridoxamine 2HCl 78 mg/kg, pyridoxine HCl 62 mg/kg. The format is in vivo. The text has this: 2. Effect of vitamin B6 and the equimolar dose of a derivative thereof on the calcium and lipid content of the aorta of rabbits after 10 weeks of treatment as compared to a control group fed with a diet containing 2% cholesterol

Series [1] in a line: Tolerance of vitamin B6 and two derivatives in mice after a single oral dose of 5 g. The settings on record: mouse, in vivo, 5000 mg, single oral dose of 5 g, read-out: % death. The text has this:
3. Tolerance of vitamin B6 and two derivatives in mice after a single oral dose of 5 g

The test system of series [2] is aortae of the rabbits from the heart to the bifurcation. The experiment in a line: Aorta changes in hyperlipaemic rabbits after 10 weeks of treatment (120 mg/kg), relative to non-treated rabbits. The series is classed as in vivo. As for the experimental part: The values are mean values of 18 rabbits and measured relative to a basis of non-treated rabbits.
The control group received a diet comprising 2% of cholesterol. In the group under treatment each rabbit received additionally 120 mg pyridoxamine.2 HCl/kg body weight. At the end of the test the aortae of the rabbits from the heart to the bifurcation were prepared and examined: […]

The test system of the next series is serum lipids. The series can be described thus: Effect of vitamin B6 and a derivative thereof on serum lipids in rats after 12 weeks of treatment. As to conditions: diet 2.5% cholesterol plus 0.25% cholic acid, 79 mg pyridoxine/kg or equimolar dose. The series is classed as in vivo. As for the experimental part: 1. Effect of vitamin B6 and a derivative thereof on serum lipids in rats after 12 weeks of treatment
Group A=rats fed with normal diet without cholesterol
Group B=rats fed with a diet containing 2.5% cholesterol plus 0.25% cholic acid
Group C=as group (B) plus 79 mg pyridoxine/kg bodyweight
Group D=as group (B) plus an equimolar (to pyridoxine) dose of a pyridoxamine derivative
20 animals per group; means ±SD; difference to group B in %

Series [3] concerns lipid metabolism. As to conditions: earlier experiments on animals; cited from earlier work.
Series [4] deals with lipid metabolism. The experiment in a line: Pyridoxine in rats (own experiments, with a positive control). The format is in vivo. The settings on record: 79 mg/kg body weight. The text has this: This was explicitly queried in DE 24 61 742 C2 (column 3, lines 35 ff). […] Pyridoxine was used separately in earlier experiments on animals in conjunction with lipid metabolism (see Frolova, J. A.: Vitamin B6 and lipid metabolism; Vopr. med. Khim. 89, 18. 339-346 (1972)). Its effect, however, is weak.

The mark [5] stands for this setting: 2% cholesterol diet, 120 mg/kg body weight, 10 weeks, mean of 18, relative to non-treated.

Where a name gives a salt, the structure may show the parent alone.

`Cc1ncc(CO)c(CO)c1O` [pyridoxine · HCl]: in the series with aorta of rabbits, the “calcium in aorta, % difference to control” value is “+21%”; the “cholesterol in aorta, % difference to control” value is reported as -2%; the “dry weight of aorta, % difference to control” value is listed as -1%; the “total lipids in aorta, % difference to control” value was -3%. The “triglycerides in aorta, % difference to control” value with aorta of rabbits was “+6%”.
Turning to `Cc1ncc(CO)c(CN)c1O` [Pyridoxamine], the mortality in series [1] came to 0%.
On to `Cc1ncc(CO)c(CN)c1O` [pyridoxamine.2 HCl], for which, in series [2] (setting [5]), the “decrease of calcium in aorta” value is 31%, the “decrease of cholesterol in aorta” value turned out to be 27%, the “decrease of lipids (total) in aorta” value turned out to be 18% and the “decrease of triglycerides in aorta” value worked out at 17%. For the same molecule, the “decrease of changes characteristic for atherosclerosis (thickening of the walls, lipid- and calcium uptake)” value in series [2] (after 10 weeks) was “substantial decrease”. Also, in the series with aorta of rabbits, the “calcium in aorta, % difference to control” value is given as -24%; the “cholesterol in aorta, % difference to control” value is reported as -21%; the “dry weight of aorta, % difference to control” value is on record as -7%; the “total lipids in aorta, % difference to control” value is recorded as -15%. Besides, in the series with aorta of rabbits, the “triglycerides in aorta, % difference to control” value is listed as -15%.
As for `Cc1ncc(CO)c(C=O)c1O` [Pyridoxal], the mortality in series [1] was determined as 100%.
On to `Cc1ncc(CO)c(CO)c1O` [Pyridoxine], for which, in the series on serum lipids, the “LDL + VLDL-Cholesterol, difference to group B” value is recorded as -10% and the “Total serum cholesterol, difference to group B” value is recorded as -4%. Moreover, in the series with serum lipids (mean (SD in next line)), the “LDL + VLDL-Cholesterol” value is reported as 150 and the Total serum cholesterol amounted to 204. For the same molecule, the “effect on lipid metabolism” value with lipid metabolism [3] was “weak”. Moreover, the effect in rats result with lipid metabolism [4] is “ineffective”. Besides, the mortality in series [1] was 30%.

These data come from patent US5288716A, “Use of pyridoxine derivatives in the prevention and treatment of hyperlipidaemia and atherosclerosis” (priority 1987, dated 1994).
